Measured values: patent publication US20260226084A1, “DUAL RAF AND TUBULIN INHIBITORS AND METHODS OF USE THEREOF” (Deciphera Pharmaceuticals, LLC, priority 2023, published 2026)
Like-named read-outs stand apart in the source and are kept apart here.

Columns and labels:
[1] = tested on: MiaPaca-2 cells; assay: MiaPaca-2 Cell Proliferation Assay; format: cell-based; conditions: Homo sapiens
In short: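 Viability was read as resazurin fluorescence (540 nm excitation, 600 nm emission) after 5–6 h with dye. Compounds were tested as serial dilutions in triplicate, with IC50 derived from the dose–response.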

[2] = tested on: HPAF-II cells; assay: HPAF-II Cell Proliferation Assay; format: cell-based; conditions: Homo sapiens, HPAF-II
In short: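 HPAF-II cells (750/well) in complete MEM with 10% FBS were exposed to serially diluted compound in triplicate for 115–120 h at 37 °C, 5% CO2. Resazurin was then added for 18–24 h more; fluorescence (ex 540/em 600 nm) gave IC50.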

[3] = MIA PaCa-2, MiaPaca-2 cells, Table 2, read-out: Inhibition of cell proliferation in MiaPaca-2 (IC50 class)
[4] = MIA PaCa-2, Table 3, read-out: MiaPaca-2 (IC50 class)
[5] = HPAF-II cells, Table 2, read-out: Inhibition of cell proliferation in HPAF-II (IC50 class)
[6] = Table 3, read-out: HPAF-II (IC50 class)

`Cc1ccc(NC(=O)c2cc(C#N)cnn2)cc1-c1ccnc(-c2ccnc(NC(=O)C3CC3)c2)c1` [Example 96, 5-cyano-N-(3-(2′-(cyclopropanecarboxamido)-[2,4′-bipyridin]-4-yl)-4-methylphenyl)pyridazine-3-carboxamide] was tested, and the IC50 [1, 3] was < 100 nM, the IC50 [1, 4] was < 100 nM and the IC50 [2, 5] was 100 to 500 nM. It also gave an IC50 [2, 6] of 100 to 500 nM.
For `Cc1ccc(NC(=O)c2cc(C(F)(F)F)cnn2)cc1-c1ccnc(-c2ccnc(NC(=O)C3CC3)c2)c1` [Example 67], the IC50 [1, 3] was < 100 nM, the IC50 [1, 4] was < 100 nM and the IC50 [2, 5] was < 100 nM. The IC50 [2, 6] was < 100 nM.
In the case of `Cc1ccc(NC(=O)c2cnc(C(F)(F)F)nc2)cc1-c1ccnc(-c2ccnc(NC(=O)C3CC3)c2)c1` [Example 17], the IC50 [1, 3] is reported as 100 to 500 nM, the IC50 [1, 4] is reported as 100 to 500 nM and the IC50 [2, 5] is reported as < 100 nM. The IC50 [2, 6] was < 100 nM.
For `Cc1ccc(NC(=O)c2cc(C(C)(F)F)cnn2)cc1-c1ccnc(-c2ccnc(NC(=O)C3CC3)c2)c1` [Example 57], the IC50 [1, 3] was < 100 nM, the IC50 [1, 4] was < 100 nM and the IC50 [2, 5] was < 100 nM. The IC50 [2, 6] was < 100 nM.
For `Cc1ccc(NC(=O)c2cc(C3CC3)cnn2)cc1-c1ccnc(-c2ccnc(NC(=O)C3CC3)c2)c1` [Example 43], the IC50 [1, 3] was < 100 nM, the IC50 [1, 4] was < 100 nM and the IC50 [2, 5] was 100 to 500 nM. The IC50 [2, 6] was 100 to 500 nM.
